Measurements reported in patent US12287326B2, “Fluorescent turn-on chemosensors for detection of aluminum ion and azide” (Morgan State University, priority 2019, dated 2025).

Test: Fluorescence titration of sensors with Al^3+
Conditions: λex=510 nm, emission 585 nm
Procedure: All reagents and solvents were purchased as analytical-grade and used without further purification unless otherwise stated. Stock solutions of metal ions were prepared from their nitrate and chloride salts and anion species from their tetrabutylammonium salts. Distilled deionized water was used throughout the experiments. ^1H-NMR and 13C-NMR spectra were recorded using an Avance 400 MHz spectrometer (BRUKER® Billerica, Karlsruhe, Germany) with tetramethylsilane (TMS) as internal standard and deuterated chloroform (CDCl3) as solvent. NMR spectra were analyzed using MestReNova software (version 10, Mestrela Research, Feliciano Barrera-Bajo, Spain). The IR spectrum was obtained using FT-IR spectrometer (Shimadzu, IRAffinity-1S, Columbia, MD, USA). […] All UV-vis spectroscopy experiments were recorded using a Cary UV/vis spectrophotometer 5000 (VARIAN®, Walnut Creek, CA, USA). Fluorescence emission spectra experiments were measured using a Cary 60 series spectrometer (AGILENT® Walnut Creek, CA, USA), with excitation and emission slit widths of 5 nm and excitation wavelength at 510 nm. […]
All spectroscopic measurements were carried out in aqueous CH3CN medium at room temperature. […] Each fluorescence titration was repeated at least thrice until consistent values were obtained. […] The association constant (K) was calculated from absorbance studies by the linear Benesi-Hildebrand equation. […]

Compound | detection limit for Al^3+ ions [µM]
CCN(CC)c1ccc2c(c1)Oc1cc(N(CC)CC)ccc1C21c2ccccc2C(=O)N1/N=C/c1c(OC)ccc2ccccc12 [L1] | 32
CCN(CC)c1ccc2c(c1)Oc1cc(N(CC)CC)ccc1C21c2ccccc2C(=O)N1/N=C/c1cc(Br)cc(OC)c1O [L2] | 47
